{"source": "patent US10272092B2", "about": "“Composition for preventing or treating mucositis comprising NecroX as effective ingredient” (THE CATHOLIC UNIVERSITY OF KOREA INDUSTRY-ACADEMIC …, priority 2014, dated 2019)", "key": {"[1]": {"system": "anticancer drug-induced mucositis mouse model", "experiment": "Anticancer drug (5-FU)-induced mucositis mouse model: viability, body weight", "type": "in vivo, C57BL/6(H-2k) mice", "conditions": "50 mg/kg 5-FU i.p. five times; NecroX-7 intravenously five times at 0.3, 3 or 30 mg/kg; compared to group not treated; FIG. 7", "protocol": "7 week- to 9 week-old C57BL/6(H-2k) mice were used as an animal model, and injected intraperitoneally with 50 mg/kg of 5-fluorouracil (5-FU) every day for 5 days to induce oral and intestinal mucosal damage, thereby completing the establishment of a mucositis model. Effects of NecroX-7 administered on such a mucositis model were analyzed by comparison in terms of viability, body weight, and intestinal functions.\nTo induce oral and intestinal mucositis, the C57BL/6(H-2k) mice were intraperitoneally injected with 50 mg/kg of 5-FU five times. NecroX-7 was administered intravenously five times at a dose of 0.3 mg/kg or 3 mg/kg or 30 mg/kg and the results were compared."}, "[2]": {"system": "intestinal epithelial cells (IEC-6)", "experiment": "MTS assay of IEC-6 cell proliferation in normal environments", "type": "cell-based", "conditions": "no radiation, 5, 10, 20, 40 μM for 30 minutes, measured after 2 days", "protocol": "To examine an effect of NecroX-7 on IEC-6 cell proliferation ability in normal environments, IEC-6 cells were treated with NecroX-7 at each concentration (5 μM, 10 μM, 20 μM, and 40 μM) for 30 minutes, the media were replaced and, after 2 days, the viability of the IEC-6 cells was measured by MTS (3-(4,5-dimethylthiazol-2-yl)-5-(3-carboxymethoxyphenyl)-2-(4-sulfophenyl)-2H-tetrazolium) assay."}, "[3]": {"system": "liver injury caused by carbon tetrachloride", "conditions": "mouse model; reported, Park et al. 2013; cited from earlier work"}, "[4]": {"system": "liver injury due to ischemic reperfusion", "conditions": "reported, Park et al. 2013; cited from earlier work"}, "Human tumor cells": {"system": "Human tumor cells", "experiment": "MTS viability of human tumor cells, NecroX-7 with or without 5-FU", "type": "cell-based", "conditions": "5, 10, 20, 40 μM for 30 minutes; media without 5-FU; after 3 days; FIG. 10", "protocol": "Human tumor cells were treated with NecroX-7 at each concentration ((5 μM, 10 μM, 20 μM, and 40 μM) for 30 minutes, the media were replaced by media with or without 5-FU, which is a chemotherapeutic agent, the cells were loaded on a 96-well plate and, after 3 days, the viability of the cells was measured by MTS assay."}, "[5]": {"system": "intestinal tissue of radiation-induced mucositis mice", "experiment": "Cell proliferation (bromodeoxyuridine) by IHC staining of intestinal tissue", "type": "in vivo", "conditions": "30 mg/kg NecroX-7, unlike a control, FIG. 4", "protocol": "Cell proliferation (bromodeoxyuridine) was confirmed by IHC staining. Before obtaining mouse tissues, mice were each injected with […] of a BrDU labeling reagent (5-bromo-2′-deoxyuridine and 5-fluoro-2′-deoxyuridine) and intestinal tissue was extracted within 2 hours to prepare paraffin blocks. 4 μm continuous sections were obtained from paraffin-embedded tissue, treated with xylene three times to remove paraffin, and then rinsed stepwise in 95%, 90% and 70% ethanol. After removing endogenous peroxidase from 0.3% hydrogen peroxide, the sections were treated with goat serum for 30 minutes. A primary antibody was diluted in PBS containing 3% BSA according to the manufacturer's instructions and then maintained for 1 hour to induce a reaction therebetween. […] The cells were maintained in 3 μg/ml HRP streptoavidin for 30 minutes, developed color with DAB and hydrogen peroxide, and then were subjected to contrast staining with Mayer's hematoxylin or 1% methyl green."}, "tumor cells": {"system": "tumor cells", "experiment": "MTT assay of irradiated tumor cells", "type": "cell-based", "conditions": "800 cGy radiation; NecroX-7 according to doses; 3 days incubation; FIG. 5", "protocol": "(§1) Mucositis is a general side effect caused by radiation or chemotherapy for tumor treatment. Thus, to confirm the efficacy of a mucositis therapeutic agent, an effect thereof on tumor proliferation should be evaluated. Normal cells and tumor cells were irradiated with 800 cGy radiation, treated with NecroX-7 according to doses, and inoculated on a 96-well plate, incubated at 37[…] and 5% CO2 for 3 days, and then cell proliferation was confirmed by MTT assay. After incubation for 3 days, an MTT solution was added thereto and a reaction was allowed to occur therein for 3 hours, and the absorbance thereof was measured at […]."}, "[6]": {"system": "intestinal epithelial cells (IEC-6)", "experiment": "MTS assay of IEC-6 cells after irradiation", "type": "cell-based", "conditions": "20 μM and 40 μM NecroX-7 for 30 minutes; 2 days after radiation irradiation; FIG. 6", "protocol": "To investigate an effect of NecroX-7 on cell proliferation ability after irradiation, the IEC-6 cells were treated with NecroX-7, for 30 minutes, according to concentration, the media were replaced, and then MTS assay was performed thereon 2 days after radiation irradiation."}, "[7]": {"system": "intestinal tissue of radiation-induced mucositis mice", "experiment": "H&E staining of intestinal tissue, radiation-induced mucositis", "type": "in vivo", "conditions": "30 mg/kg NecroX-7, FIG. 3"}, "[8]": {"system": "tongue and intestinal tissues of anticancer drug-induced mucositis mice", "experiment": "H&E staining of tongue and intestinal tissues, 5-FU-induced mucositis", "type": "in vivo"}, "[9]": {"system": "radiation-induced mucositis mouse model", "experiment": "Radiation-induced mucositis mouse model: viability, body weight, intestinal functions", "type": "in vivo, C57BL/6(H-2k) mice", "conditions": "1100 cGy radiation, compared to group not treated", "protocol": "NecroX-7 ((tetrahydropyran-4-yl)-[2-phenyl-5-(1,1-dioxo-thiomorpholine-4-yl)methyl-1H-indole-7-yl]amine) was obtained from LG Life Sciences, Ltd. 7 week- to 9 week-old C57BL/6(H-2k) mice were used as an animal model, and irradiated with 1,100 cGy whole-body radiation to induce damage to the intestinal mucosa, thereby completing the establishment of a mucositis model. Effects of NecroX-7 administered on such a mucositis model were analyzed by comparison in terms of viability, body weight, and intestinal functions.\n(A) C57BL/6(H-2k) mice were irradiated with strong radiation 1100 cGy (radiation source: X-ray Mevatron MXE-2) at a dose rate of 1 Gy/min to induce mucositis. NecroX-7 was administered five times at a dose of 0.3 mg/kg or 3 mg/kg or 30 mg/kg and the results were compared.\nInduction of intestinal mucositis by radiation causes side effects such as intestinal hemorrhaging and fecal incontinence. Thus, in the present experiment, a mucositis model was established by irradiating high-dose radiation of 1100 cGy, and NecroX-7 was treated total five times and the NecroX-7 treated group was compared to a group not treated with NecroX-7. A protective effect of NecroX-7 with respect to radiation-induced intestinal mucositis was examined."}, "[10]": {"system": "mitochondrial ROS in intestinal epithelial cells (IEC-6)", "experiment": "Mitochondrial ROS by CM-H2ROS staining after radiation", "type": "cell-based", "conditions": "IEC-6 cells after radiation; FIG. 6"}, "normal cells": {"system": "normal cells", "experiment": "MTT assay of irradiated normal cells", "type": "cell-based", "conditions": "800 cGy radiation; NecroX-7 according to doses; 3 days incubation; FIG. 5", "protocol": "as §1"}, "[11]": {"system": "necrocytosis caused by oxidative stress and acetaminophen", "conditions": "reported, Park et al. 2013; cited from earlier work"}, "[12]": {"conditions": "NecroX-7 five times at 0.3, 3 or 30 mg/kg, FIG. 1"}}}
{"smiles": "O=S1(=O)CCN(Cc2cc(NC3CCOCC3)c3[nH]c(-c4ccccc4)cc3c2)CC1", "note": "[NecroX-7, (tetrahydropyran-4-yl)-[2-phenyl-5-(1,1-dioxo-thiomorpholine-4-yl)methyl-1H-indole-7-yl]amine]", "values": [{"measurement": "body weight loss", "setting": "[1]", "value": "suppressed body weight loss"}, {"measurement": "viability", "setting": "[1]", "value": "increased viability"}, {"measurement": "effect on IEC-6 cell proliferation (MTS viability)", "setting": "[2]", "value": "nearly no effect on cell proliferation"}, {"measurement": "prevention of liver injury caused by carbon tetrachloride", "setting": "[3]", "value": "effect of preventing liver injury caused by carbon tetrachloride in a mouse model"}, {"measurement": "inhibition of liver injury due to ischemic reperfusion", "setting": "[4]", "value": "effectively inhibits liver injury due to ischemic reperfusion"}, {"measurement": "viability of human tumor cells (MTS), NecroX-7 alone", "setting": "Human tumor cells", "value": "anticancer effect in a concentration-dependent manner"}, {"measurement": "cell proliferation (bromodeoxyuridine) in intestinal tissue", "setting": "[5]", "value": "vigorous cell proliferation was observed"}, {"measurement": "proliferation of tumor cells (MTT)", "setting": "tumor cells", "value": "suppressed or decreased in most cancer cell lines"}, {"measurement": "number of live IEC-6 cells (MTS)", "setting": "[6]", "value": "significantly increased"}, {"measurement": "H&E histology of intestinal tissue (villi and mucosal destruction)", "setting": "[7]", "value": "aspects similar to normal intestinal tissue"}, {"measurement": "H&E histology of tongue and oral mucosa (epidermal atrophy, infiltration of inflammatory and necrotic cells)", "setting": "[8]; 30 mg/kg of NecroX-7, FIG. 8", "value": "aspects similar to normal tissues"}, {"measurement": "H&E histology of intestinal tissue (villi and mucosal destruction)", "setting": "[8]; NecroX-7-treated group, FIG. 9", "value": "aspects similar to normal tongue and intestinal tissues"}, {"measurement": "body weight loss", "setting": "[9]; [12]", "value": "inhibited body weight loss"}, {"measurement": "viability", "setting": "[9]; [12]", "value": "increased viability"}, {"measurement": "intestinal function protection (length of the intestines, stool production)", "setting": "[9]; NecroX-7 total five times, FIG. 2", "value": "protected, similar to the intestines of a normal group"}, {"measurement": "mitochondrial ROS (CM-H2ROS staining)", "setting": "[10]", "value": "significantly suppressed mitochondrial ROS increased by radiation"}, {"measurement": "radiation-induced cell death in normal cells (MTT)", "setting": "normal cells", "value": "radiation-induced cell death was prevented"}, {"measurement": "protection against necrocytosis caused by oxidative stress and acetaminophen", "setting": "[11]", "value": "protective effect against necrocytosis caused by oxidative stress and acetaminophen"}]}
